Measured values taken from ChEMBL document CHEMBL4627335, “Lead discovery, chemical optimization, and biological evaluation studies of novel histone methyltransferase SET7 small-molecule inhibitors” (Bioorg Med Chem Lett, 2020).
Activity calls are given as the source filed them. No cut-off for these calls is given here.

Tests used:
[1] = molecular target: T1, Histone-lysine N-methyltransferase SETD7 (Homo sapiens, UniProt Q8WTS6); assay: Inhibition of SET7 (unknown origin) using biotinylated histone polypeptide as substrate in presence of SAM by AlphaLISA assay
T1 sequence (Q8WTS6 whole entry): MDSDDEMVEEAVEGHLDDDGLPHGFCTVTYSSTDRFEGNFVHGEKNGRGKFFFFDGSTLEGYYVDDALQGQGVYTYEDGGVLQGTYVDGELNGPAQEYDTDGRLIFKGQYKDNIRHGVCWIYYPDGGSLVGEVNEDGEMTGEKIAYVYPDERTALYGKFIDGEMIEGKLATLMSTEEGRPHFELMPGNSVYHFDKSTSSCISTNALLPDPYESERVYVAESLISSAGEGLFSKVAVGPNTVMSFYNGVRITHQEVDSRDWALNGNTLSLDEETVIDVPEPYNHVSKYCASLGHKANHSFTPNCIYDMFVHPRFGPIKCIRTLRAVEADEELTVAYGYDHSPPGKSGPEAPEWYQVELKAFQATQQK

[2] = molecular target: T1, Histone-lysine N-methyltransferase SETD7; assay: Binding affinity to SET7 (unknown origin) by SPR analysis
[3] = molecular target: T2, Histone-lysine N-methyltransferase SUV39H1 (Homo sapiens) (UniProt O43463); assay: Inhibition of SUV39H1 (unknown origin) at 100 uM
T2 sequence (whole entry): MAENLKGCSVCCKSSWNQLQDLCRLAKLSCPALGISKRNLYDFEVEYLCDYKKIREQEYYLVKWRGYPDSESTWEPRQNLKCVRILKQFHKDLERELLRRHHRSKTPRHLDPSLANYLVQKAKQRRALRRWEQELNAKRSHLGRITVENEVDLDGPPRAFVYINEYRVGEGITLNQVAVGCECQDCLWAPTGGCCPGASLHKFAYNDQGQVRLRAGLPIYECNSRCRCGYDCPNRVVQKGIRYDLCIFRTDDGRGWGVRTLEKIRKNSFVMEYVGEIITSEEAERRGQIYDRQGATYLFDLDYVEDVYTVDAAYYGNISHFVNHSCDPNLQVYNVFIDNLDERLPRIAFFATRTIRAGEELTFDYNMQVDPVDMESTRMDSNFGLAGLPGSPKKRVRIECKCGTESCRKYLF

[4] = molecular target: T3, Histone-lysine N-methyltransferase EHMT2 (Homo sapiens) (UniProt Q96KQ7); assay: Inhibition of G9a (unknown origin) at 100 uM
T3 sequence (whole entry): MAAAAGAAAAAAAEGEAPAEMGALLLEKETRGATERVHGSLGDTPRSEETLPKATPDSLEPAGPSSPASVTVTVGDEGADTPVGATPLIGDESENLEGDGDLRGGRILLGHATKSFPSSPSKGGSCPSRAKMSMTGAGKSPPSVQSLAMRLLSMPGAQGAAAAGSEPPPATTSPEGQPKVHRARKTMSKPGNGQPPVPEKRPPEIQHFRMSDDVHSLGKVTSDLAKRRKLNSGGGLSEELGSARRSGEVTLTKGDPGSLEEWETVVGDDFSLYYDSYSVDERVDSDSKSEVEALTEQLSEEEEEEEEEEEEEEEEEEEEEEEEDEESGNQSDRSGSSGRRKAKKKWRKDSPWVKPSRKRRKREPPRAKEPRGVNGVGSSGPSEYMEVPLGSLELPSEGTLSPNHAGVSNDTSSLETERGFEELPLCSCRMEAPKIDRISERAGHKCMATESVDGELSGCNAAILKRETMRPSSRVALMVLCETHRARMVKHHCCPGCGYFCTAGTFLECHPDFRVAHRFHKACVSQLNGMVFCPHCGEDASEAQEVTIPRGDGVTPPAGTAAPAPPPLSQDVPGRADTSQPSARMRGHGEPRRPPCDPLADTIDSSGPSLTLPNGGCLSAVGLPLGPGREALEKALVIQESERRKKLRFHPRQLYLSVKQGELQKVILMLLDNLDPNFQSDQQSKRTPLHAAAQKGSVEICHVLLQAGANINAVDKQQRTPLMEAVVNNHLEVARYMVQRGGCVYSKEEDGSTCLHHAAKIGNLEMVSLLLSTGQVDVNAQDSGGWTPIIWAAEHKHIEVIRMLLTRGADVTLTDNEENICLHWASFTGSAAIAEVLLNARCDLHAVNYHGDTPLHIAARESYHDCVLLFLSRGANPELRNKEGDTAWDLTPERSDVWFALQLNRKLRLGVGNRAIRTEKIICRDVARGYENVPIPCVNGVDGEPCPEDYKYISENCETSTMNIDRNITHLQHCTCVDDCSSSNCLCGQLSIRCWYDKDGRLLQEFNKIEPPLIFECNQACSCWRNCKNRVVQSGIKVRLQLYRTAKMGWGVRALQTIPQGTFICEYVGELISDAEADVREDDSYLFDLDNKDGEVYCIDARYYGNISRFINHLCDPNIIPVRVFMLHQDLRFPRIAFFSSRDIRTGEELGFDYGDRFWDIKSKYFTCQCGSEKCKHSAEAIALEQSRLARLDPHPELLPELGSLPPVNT

[5] = molecular target: Histone-lysine N-methyltransferase, H3 lysine-36 specific (Homo sapiens) (UniProt Q96L73); assay: Inhibition of NSD1 (unknown origin) at 100 uM
[6] = molecular target: Histone-lysine N-methyltransferase, H3 lysine-79 specific (Homo sapiens) (UniProt Q8TEK3); assay: Inhibition of DOT1L (unknown origin) at 100 uM
[7] = molecular target: T4, Histone acetyltransferase KAT8 (Homo sapiens) (UniProt Q9H7Z6); assay: Inhibition of MOF (unknown origin) at 100 uM
T4 sequence (whole entry): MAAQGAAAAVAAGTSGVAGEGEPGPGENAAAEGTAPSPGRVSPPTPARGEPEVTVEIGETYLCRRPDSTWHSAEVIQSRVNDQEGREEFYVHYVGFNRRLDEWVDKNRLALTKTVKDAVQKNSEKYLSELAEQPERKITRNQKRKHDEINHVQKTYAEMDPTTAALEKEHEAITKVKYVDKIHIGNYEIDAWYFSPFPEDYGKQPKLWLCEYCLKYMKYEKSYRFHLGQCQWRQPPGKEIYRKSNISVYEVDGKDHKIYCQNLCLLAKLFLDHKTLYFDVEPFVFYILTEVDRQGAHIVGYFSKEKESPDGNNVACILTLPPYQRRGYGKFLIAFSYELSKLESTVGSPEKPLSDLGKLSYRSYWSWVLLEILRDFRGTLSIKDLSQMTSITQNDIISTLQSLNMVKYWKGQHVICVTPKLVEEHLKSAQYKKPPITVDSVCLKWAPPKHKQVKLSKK

[8] = molecular target: T5, Histone-lysine N-methyltransferase SETD7 (Homo sapiens) (UniProt Q8WTS6); assay: Inhibition of SET7 (unknown origin) at 100 uM
T5 sequence (whole entry): T1 sequence (Q8WTS6 whole entry)

MCF7 = assay: Antiproliferative activity against human MCF7 cells expresses endogenous ER by Cell Titer-Glo based luminescence assay
MRC5 = assay: Cytotoxicity against human MRC5 cells assessed as reduction in cell viability by Cell Titer-Glo based luminescence assay
HUVEC = assay: Cytotoxicity against HUVEC assessed as reduction in cell viability by Cell Titer-Glo based luminescence assay; settings: human
[9] = molecular target: T5, Histone-lysine N-methyltransferase SETD7 (Homo sapiens); assay: Inhibition of SET7 in human MCF7 cells assessed as reduction in ERalpha protein expression by Western blot analysis; type: cell-based

Histone-lysine N-methyltransferase, H3 lysine-36 specific (Homo sapiens), sequence (Q96L73 whole entry): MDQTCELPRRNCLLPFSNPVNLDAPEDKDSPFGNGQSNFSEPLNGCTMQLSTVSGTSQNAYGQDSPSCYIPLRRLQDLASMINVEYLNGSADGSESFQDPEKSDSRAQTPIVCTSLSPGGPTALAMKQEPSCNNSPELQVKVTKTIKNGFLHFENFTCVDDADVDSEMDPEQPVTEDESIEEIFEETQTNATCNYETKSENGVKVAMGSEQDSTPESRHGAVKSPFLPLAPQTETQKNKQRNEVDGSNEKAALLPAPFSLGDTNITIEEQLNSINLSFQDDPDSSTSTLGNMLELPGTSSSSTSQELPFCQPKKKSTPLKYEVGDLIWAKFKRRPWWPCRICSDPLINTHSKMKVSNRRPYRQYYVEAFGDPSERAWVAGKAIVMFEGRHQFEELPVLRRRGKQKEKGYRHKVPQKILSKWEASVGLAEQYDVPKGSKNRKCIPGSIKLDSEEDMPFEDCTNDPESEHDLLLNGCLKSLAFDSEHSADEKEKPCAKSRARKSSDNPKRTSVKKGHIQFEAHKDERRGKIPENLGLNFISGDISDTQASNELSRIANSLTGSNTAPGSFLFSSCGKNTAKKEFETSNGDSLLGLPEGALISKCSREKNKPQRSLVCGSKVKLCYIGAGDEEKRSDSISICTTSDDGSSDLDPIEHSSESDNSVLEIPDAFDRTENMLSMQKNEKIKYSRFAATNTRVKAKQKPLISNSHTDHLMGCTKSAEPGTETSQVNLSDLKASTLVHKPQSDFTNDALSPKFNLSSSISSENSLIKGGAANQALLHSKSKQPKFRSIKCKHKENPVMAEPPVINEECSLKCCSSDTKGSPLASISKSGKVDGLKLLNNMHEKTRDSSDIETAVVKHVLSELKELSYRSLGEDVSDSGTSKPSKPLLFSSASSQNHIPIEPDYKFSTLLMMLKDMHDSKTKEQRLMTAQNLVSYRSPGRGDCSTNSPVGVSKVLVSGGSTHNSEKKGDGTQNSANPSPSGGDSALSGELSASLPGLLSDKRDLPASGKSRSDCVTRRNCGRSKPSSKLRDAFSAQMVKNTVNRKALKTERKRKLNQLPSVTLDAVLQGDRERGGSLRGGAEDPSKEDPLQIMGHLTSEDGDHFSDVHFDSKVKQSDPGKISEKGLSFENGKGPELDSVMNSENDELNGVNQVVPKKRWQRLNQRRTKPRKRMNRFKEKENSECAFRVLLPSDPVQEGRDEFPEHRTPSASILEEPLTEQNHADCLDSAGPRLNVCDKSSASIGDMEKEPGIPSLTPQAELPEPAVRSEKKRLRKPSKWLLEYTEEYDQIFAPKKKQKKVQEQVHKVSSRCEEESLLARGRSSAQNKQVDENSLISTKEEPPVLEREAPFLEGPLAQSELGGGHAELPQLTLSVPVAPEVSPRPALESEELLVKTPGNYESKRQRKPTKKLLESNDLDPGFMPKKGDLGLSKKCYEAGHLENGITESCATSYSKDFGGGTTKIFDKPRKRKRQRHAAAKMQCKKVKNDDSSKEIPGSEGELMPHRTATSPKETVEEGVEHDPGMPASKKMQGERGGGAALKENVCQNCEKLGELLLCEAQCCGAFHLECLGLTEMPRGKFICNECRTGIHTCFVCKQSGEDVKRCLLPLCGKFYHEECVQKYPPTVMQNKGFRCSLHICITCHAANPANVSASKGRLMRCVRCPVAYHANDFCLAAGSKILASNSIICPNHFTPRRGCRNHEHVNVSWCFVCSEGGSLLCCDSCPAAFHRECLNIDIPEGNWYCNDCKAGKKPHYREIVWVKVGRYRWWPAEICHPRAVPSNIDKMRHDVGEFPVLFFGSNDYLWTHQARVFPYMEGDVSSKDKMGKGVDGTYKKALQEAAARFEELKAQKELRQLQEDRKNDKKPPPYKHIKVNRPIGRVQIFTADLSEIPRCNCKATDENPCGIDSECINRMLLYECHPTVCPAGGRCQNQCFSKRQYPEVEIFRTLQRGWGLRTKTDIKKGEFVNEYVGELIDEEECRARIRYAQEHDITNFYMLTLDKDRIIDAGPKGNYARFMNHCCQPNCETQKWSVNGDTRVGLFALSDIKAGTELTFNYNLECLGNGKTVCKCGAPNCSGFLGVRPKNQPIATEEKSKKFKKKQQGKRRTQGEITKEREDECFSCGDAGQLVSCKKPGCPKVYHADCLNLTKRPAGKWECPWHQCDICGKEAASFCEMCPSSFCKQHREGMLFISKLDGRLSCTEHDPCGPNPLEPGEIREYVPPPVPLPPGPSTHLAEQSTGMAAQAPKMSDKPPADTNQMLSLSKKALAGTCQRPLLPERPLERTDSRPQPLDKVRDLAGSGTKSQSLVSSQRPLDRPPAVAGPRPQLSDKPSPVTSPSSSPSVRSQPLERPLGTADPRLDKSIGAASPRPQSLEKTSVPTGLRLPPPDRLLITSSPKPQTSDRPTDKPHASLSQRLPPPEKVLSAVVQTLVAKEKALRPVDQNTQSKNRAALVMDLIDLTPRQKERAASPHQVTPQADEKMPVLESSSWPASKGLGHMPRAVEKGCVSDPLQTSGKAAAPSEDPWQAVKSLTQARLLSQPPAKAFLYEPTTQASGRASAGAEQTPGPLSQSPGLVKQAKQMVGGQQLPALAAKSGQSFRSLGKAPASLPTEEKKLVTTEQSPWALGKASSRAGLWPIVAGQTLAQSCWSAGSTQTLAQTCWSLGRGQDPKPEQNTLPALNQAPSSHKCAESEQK
Histone-lysine N-methyltransferase, H3 lysine-79 specific (Homo sapiens), sequence (Q8TEK3 whole entry, looked up): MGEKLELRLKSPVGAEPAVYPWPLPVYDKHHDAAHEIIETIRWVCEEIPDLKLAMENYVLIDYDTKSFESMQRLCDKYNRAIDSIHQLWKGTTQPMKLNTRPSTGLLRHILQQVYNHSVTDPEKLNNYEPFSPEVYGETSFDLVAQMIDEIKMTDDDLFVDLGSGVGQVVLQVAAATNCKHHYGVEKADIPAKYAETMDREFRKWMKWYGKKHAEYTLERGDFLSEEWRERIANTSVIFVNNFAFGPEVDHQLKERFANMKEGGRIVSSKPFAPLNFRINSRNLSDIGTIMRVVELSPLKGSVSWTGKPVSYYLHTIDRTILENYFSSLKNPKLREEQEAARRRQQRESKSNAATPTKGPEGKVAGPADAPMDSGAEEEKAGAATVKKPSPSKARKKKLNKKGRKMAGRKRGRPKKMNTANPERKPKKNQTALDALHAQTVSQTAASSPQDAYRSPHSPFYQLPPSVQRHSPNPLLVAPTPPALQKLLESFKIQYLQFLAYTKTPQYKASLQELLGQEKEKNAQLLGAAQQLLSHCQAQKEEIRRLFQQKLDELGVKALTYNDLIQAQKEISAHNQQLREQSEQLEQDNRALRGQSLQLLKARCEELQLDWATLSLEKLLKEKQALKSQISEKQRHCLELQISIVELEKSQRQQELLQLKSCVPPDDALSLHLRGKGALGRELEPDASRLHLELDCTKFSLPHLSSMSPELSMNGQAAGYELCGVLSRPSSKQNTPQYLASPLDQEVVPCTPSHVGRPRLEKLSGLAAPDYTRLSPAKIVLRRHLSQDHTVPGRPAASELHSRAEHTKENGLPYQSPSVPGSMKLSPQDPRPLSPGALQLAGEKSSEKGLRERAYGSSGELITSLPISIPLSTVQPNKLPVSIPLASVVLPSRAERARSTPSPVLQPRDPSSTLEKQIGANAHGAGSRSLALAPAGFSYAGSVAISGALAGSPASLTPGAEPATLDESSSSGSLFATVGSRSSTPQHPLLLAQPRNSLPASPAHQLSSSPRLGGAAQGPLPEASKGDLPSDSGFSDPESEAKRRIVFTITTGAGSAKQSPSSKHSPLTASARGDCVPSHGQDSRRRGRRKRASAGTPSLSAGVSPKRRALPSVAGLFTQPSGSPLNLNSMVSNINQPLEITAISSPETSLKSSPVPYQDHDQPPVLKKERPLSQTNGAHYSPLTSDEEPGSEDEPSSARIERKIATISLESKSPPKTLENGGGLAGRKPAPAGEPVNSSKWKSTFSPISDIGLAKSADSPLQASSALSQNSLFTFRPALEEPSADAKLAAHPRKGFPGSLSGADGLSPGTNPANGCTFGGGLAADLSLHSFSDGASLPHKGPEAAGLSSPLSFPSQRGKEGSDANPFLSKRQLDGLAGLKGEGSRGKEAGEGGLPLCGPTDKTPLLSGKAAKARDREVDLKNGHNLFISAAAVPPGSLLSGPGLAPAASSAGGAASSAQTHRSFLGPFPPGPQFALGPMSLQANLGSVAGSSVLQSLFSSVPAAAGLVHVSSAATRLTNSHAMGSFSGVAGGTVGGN

Row | SMILES | IC50 [1] [µM] | further results
1 | O=C1C=CC(=O)C(c2ccc(CN3CCCC3)c(NS(=O)(=O)c3ccc(C(F)(F)F)cc3)c2)=C1 | > 200 | –
2 | COc1ccc(OC)c(-c2ccc(CN3CCOCC3)c(NS(=O)(=O)c3ccccc3)c2)c1 | > 200 | –
3 | O=C1C=C(O)C(=O)c2ccccc21 [LAWSONE] | > 200 | –
4 | COc1ccc(OC)c(-c2ccc(CN3CCCC3)c([N+](=O)[O-])c2)c1 | > 200 | –
5 | O=C1C=CC(=O)C(c2ccc(CN3CCOCC3)c(NS(=O)(=O)c3ccc(Cl)cc3)c2)=C1 | > 200 | –
6 | COc1ccc(OC)c(-c2ccc(CN3CCCC3)c(N)c2)c1 | > 200 | –
7 | COc1ccc(OC)c(-c2ccc(CN3CCN(C(=O)OC(C)(C)C)CC3)c(N)c2)c1 | > 200 | –
8 | COC1=CC(=O)c2ccccc2C1=O [2-Methoxy-1,4-naphthoquinone] | > 200 | –
9 | O=C1C=CC(=O)C(c2ccc(CN3CCOCC3)c(NS(=O)(=O)c3ccc(C(F)(F)F)cc3)c2)=C1 | > 200 | –
10 | O=C1C=CC(=O)C(c2ccc(CN3CCOCC3)c(NS(=O)(=O)c3ccc([N+](=O)[O-])cc3)c2)=C1 | > 200 | –
11 | COC(=O)c1ccc(C2=CC(=O)C=CC2=O)o1 | 15.9 | Kd [2]: 18 µM; inhibition [3]: inactive; inhibition [4]: inactive; inhibition [5]: inactive; inhibition [6]: inactive; inhibition [7]: inactive; inhibition [8]: Active; IC50 (MCF7): 25.8 µM; Activity (MRC5): Toxic; Activity (HUVEC): Toxic; inhibition [9]: Dose-dependent effect

Continued, in another order:

Row | IC50 [1] [µM] | SMILES | further results
12 | > 200 | CC(C)(C)OC(=O)N1CCN(C(=O)c2ccc(-c3cccc(C#N)c3)cc2)CC1 | –
13 | > 200 | Cc1ccc(C2=CC(=O)C=CC2=O)cc1 | –
14 | > 200 | COc1ccc(OC)c(-c2ccc(CN3CCCC3)c(NS(=O)(=O)c3ccccc3)c2)c1 | –
15 | > 200 | CN(C)CCNC(=O)c1ccc(-c2cccc(C#N)c2)cc1 | –
16 | > 200 | O=C1C=CC(=O)C(c2ccc(Br)cc2)=C1 | –
17 | > 200 | CC(C)c1ccc(C2=CC(=O)C=CC2=O)cc1 | –
18 | > 200 | N#Cc1cccc(-c2ccc(C(=O)N3CCNCC3)cc2)c1 | –
19 | > 200 | N#Cc1cccc(-c2ccc(C(=O)O)cc2)c1 | –
20 | > 200 | CCCCc1ccc(C2=CC(=O)C=CC2=O)cc1 | –
21 | > 200 | CC(C)(C)OC(=O)N1CCN(C(=O)c2ccc(-c3ccc(C#N)cc3)cc2)CC1 | –
22 | > 200 | Cc1ccc(C2=CC(=O)C=CC2=O)cc1C | –
23 | > 200 | CN(C)CCNC(=O)c1ccc(-c2ccc(C#N)cc2)cc1 | –
24 | > 200 | COc1ccc(OC)c(-c2ccc(CN3CCN(C(=O)OC(C)(C)C)CC3)cc2)c1 | –
25 | > 200 | N#Cc1ccc(-c2ccc(C(=O)O)cc2)cc1 | –
26 | > 200 | O=C1C=CC(=O)C(c2cccc(C(F)(F)F)c2)=C1 | –
